Test results as given in patent US20060217352A1, “Method for treating thrombosis” (Kowa Co., Ltd., priority 2005, published 2006).

Experiments:
clot formation = assay: Thromboelastograph maximal amplitude (MA) of clot formation after 14-day oral administration to guinea pigs; assay type: in vivo, Hartley male guinea pigs; conditions: guinea pig, oral once a day for 14 days, pitavastatin calcium 3 mg/kg and/or aspirin 100 mg/kg; for Maximal amplitude (MA) of clot formation: blood after 18 hours of fasting, average ± standard deviation; for Maximal amplitude (MA) of clot formation, relative value: relative to control group (100)
Method: The animals used in the test were 6 week old Hartley male guinea pigs (Japan SLC, Inc.), and these animals were kept throughout the test period in a breeding chamber with controlled day and night cycle (light period under illumination of room light, 7 am to 7 pm) at a temperature of 23±3° C. and a humidity of 55±15%.
24 guinea pigs were divided into 4 groups (5 or 6 animals in each group), namely, control group (with no drug administration), the group solely administered with pitavastatin calcium (3 mg/kg), the group solely administered with aspirin (100 mg/kg), and the group administered with a combination of pitavastatin calcium (3 mg/kg) and aspirin (100 mg/kg).

whole blood coagulation = assay: Thromboelastograph whole blood coagulation time (r+k value) after 14-day oral administration to guinea pigs; conditions: guinea pig, oral once a day for 14 days, pitavastatin calcium 3 mg/kg and/or aspirin 100 mg/kg; for Whole blood coagulation time (r + k value): blood after 18 hours of fasting, average ± standard deviation; for Whole blood coagulation time (r + k value), relative value: relative to control group (100)

Row | Compound | Maximal amplitude (MA) of clot formation (clot formation) | Maximal amplitude (MA) of clot formation, relative value (clot formation) | Whole blood coagulation time (r + k value) (whole blood coagulation) | Whole blood coagulation time (r + k value), relative value (whole blood coagulation)
1 | CC(=O)Oc1ccccc1C(=O)O [Aspirin, acetyl salitylic acid] | 71.0 ± 3.1 mm | 98% | 12.7 ± 1.6 min | 109%
2 | O=C(O)C[C@H](O)C[C@H](O)/C=C/c1c(C2CC2)nc2ccccc2c1-c1ccc(F)cc1 [Pitavastatin, (3R,5S,6E)-7-[2-cyclopropyl-4-(4-fluorophenyl)-3-quinolyl]-3,5-dihydroxy-6-heptenoic acid] | 71.8 ± 5.0 mm | 99% | 12.8 ± 2.4 min | 110%
